From PubChem BioAssay AID1919005 (Molecular Pharmacology Branch, DTP, NCI, 2023)
One block for each compound: values may come before it.

Tested on: 855422-203-R-J1-PDC complex spheroid growth
Experiment: Anticancer human tumor 855422-203-R-J1-PDC patient-derived bladder carcinoma cell line growth inhibition [AhR]
Conditions: for IC50: curve of first compound; for viability, T/C: stronger effect = lower value
Procedure, shortened: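 Spheroids combined tumor cells with HUVEC endothelial cells and human MSCs as stroma. AhR antagonists were paired with standard or investigational drugs, each dosed in half-log steps down from near clinical Cmax, or from 10 microM where Cmax was unknown.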
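Also: spheroids exposed to agents for seven days before readout.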
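For viability, T/C in this document: percent of DMSO vehicle control luminescence viability.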

IC50 (second compound 0.1 µM): > 0.1 µM
IC50 (second compound 0.316 µM): > 0.1 µM
IC50 (second compound 1 µM): > 0.1 µM
IC50 (second compound 3.16 µM): > 0.1 µM
IC50 (second compound 10 µM): < 0.000316 µM
SMILES: Cn1ncnc1C1c2n[nH]c(=O)c3cc(F)cc(c23)NC1c1ccc(F)cc1 (stereo not given) + Cc1cncc(-c2nc(NCCc3c[nH]c4ccccc34)c3ncn(C(C)C)c3n2)c1
viability, T/C (second compound 0.1 µM, first compound 0.000316 µM): 84.1%
viability, T/C (second compound 0.1 µM, first compound 0.001 µM): 85.3%
viability, T/C (second compound 0.1 µM, first compound 0.00316 µM): 87.6%
viability, T/C (second compound 0.1 µM, first compound 0.01 µM): 95.9%
viability, T/C (second compound 0.1 µM, first compound 0.0316 µM): 87.8%
viability, T/C (second compound 0.1 µM, first compound 0.1 µM): 88.2%
viability, T/C (second compound 0.316 µM, first compound 0.000316 µM): 91.7%
viability, T/C (second compound 0.316 µM, first compound 0.001 µM): 80.8%
viability, T/C (second compound 0.316 µM, first compound 0.00316 µM): 73.1%
viability, T/C (second compound 0.316 µM, first compound 0.01 µM): 88.5%
viability, T/C (second compound 0.316 µM, first compound 0.0316 µM): 90.3%
viability, T/C (second compound 0.316 µM, first compound 0.1 µM): 81.6%
viability, T/C (second compound 1 µM, first compound 0.000316 µM): 81.3%
viability, T/C (second compound 1 µM, first compound 0.001 µM): 86.2%
viability, T/C (second compound 1 µM, first compound 0.00316 µM): 76.4%
viability, T/C (second compound 1 µM, first compound 0.01 µM): 78.3%
viability, T/C (second compound 1 µM, first compound 0.0316 µM): 77.2%
viability, T/C (second compound 1 µM, first compound 0.1 µM): 84%
viability, T/C (second compound 3.16 µM, first compound 0.000316 µM): 67.6%
viability, T/C (second compound 3.16 µM, first compound 0.001 µM): 74.4%
viability, T/C (second compound 3.16 µM, first compound 0.00316 µM): 71.4%
viability, T/C (second compound 3.16 µM, first compound 0.01 µM): 56.6%
viability, T/C (second compound 3.16 µM, first compound 0.0316 µM): 76.9%
viability, T/C (second compound 3.16 µM, first compound 0.1 µM): 75.2%
viability, T/C (second compound 10 µM, first compound 0.000316 µM): 30.7%
viability, T/C (second compound 10 µM, first compound 0.001 µM): 29.6%
viability, T/C (second compound 10 µM, first compound 0.00316 µM): 21.5%
viability, T/C (second compound 10 µM, first compound 0.01 µM): 5.12%
viability, T/C (second compound 10 µM, first compound 0.0316 µM): 23.6%
viability, T/C (second compound 10 µM, first compound 0.1 µM): 26.1%

IC50 (second compound 0.1 µM): > 3 µM
IC50 (second compound 0.316 µM): > 3 µM
IC50 (second compound 1 µM): > 3 µM
IC50 (second compound 3.16 µM): > 3 µM
IC50 (second compound 10 µM): > 3 µM
SMILES: CCN(c1cc(-c2ccc(CN3CCOCC3)cc2)cc(C(=O)NCc2c(C)cc(C)[nH]c2=O)c1C)C1CCOCC1 + CC(CO)NC(=O)c1cc(-c2ccc(Cl)cc2)nn(-c2cnn(C)c2)c1=O
viability, T/C (second compound 0.1 µM, first compound 0.00949 µM): 94.1%
viability, T/C (second compound 0.1 µM, first compound 0.03 µM): 102%
viability, T/C (second compound 0.1 µM, first compound 0.0949 µM): 94.3%
viability, T/C (second compound 0.1 µM, first compound 0.3 µM): 95.7%
viability, T/C (second compound 0.1 µM, first compound 0.949 µM): 86.2%
viability, T/C (second compound 0.1 µM, first compound 3 µM): 88.5%
viability, T/C (second compound 0.316 µM, first compound 0.00949 µM): 112%
viability, T/C (second compound 0.316 µM, first compound 0.03 µM): 109%
viability, T/C (second compound 0.316 µM, first compound 0.0949 µM): 100%
viability, T/C (second compound 0.316 µM, first compound 0.3 µM): 95.5%
viability, T/C (second compound 0.316 µM, first compound 0.949 µM): 92.1%
viability, T/C (second compound 0.316 µM, first compound 3 µM): 92.6%
viability, T/C (second compound 1 µM, first compound 0.00949 µM): 100%
viability, T/C (second compound 1 µM, first compound 0.03 µM): 105%
viability, T/C (second compound 1 µM, first compound 0.0949 µM): 114%
viability, T/C (second compound 1 µM, first compound 0.3 µM): 94.5%
viability, T/C (second compound 1 µM, first compound 0.949 µM): 91.9%
viability, T/C (second compound 1 µM, first compound 3 µM): 88.8%
viability, T/C (second compound 3.16 µM, first compound 0.00949 µM): 98.6%
viability, T/C (second compound 3.16 µM, first compound 0.03 µM): 95.2%
viability, T/C (second compound 3.16 µM, first compound 0.0949 µM): 103%
viability, T/C (second compound 3.16 µM, first compound 0.3 µM): 94.1%
viability, T/C (second compound 3.16 µM, first compound 0.949 µM): 86%
viability, T/C (second compound 3.16 µM, first compound 3 µM): 77.4%
viability, T/C (second compound 10 µM, first compound 0.00949 µM): 96.5%
viability, T/C (second compound 10 µM, first compound 0.03 µM): 102%
viability, T/C (second compound 10 µM, first compound 0.0949 µM): 83.5%
viability, T/C (second compound 10 µM, first compound 0.3 µM): 92.8%
viability, T/C (second compound 10 µM, first compound 0.949 µM): 103%
viability, T/C (second compound 10 µM, first compound 3 µM): 80.7%
